According to patent publication US20130053245A1, “Method and Substance for Promoting Plant Growth” (World Grow International Corp., priority 2009, published 2013):

Test system: baby corn seeds
Test: root length developed on baby corn seeds after treatment with homeopathic growth stimulant
Type: in vivo
Procedure: The length of roots that developed on the baby corn seeds, after treatment of the seeds with various concentrations of homeopathic growth stimulant, was measured. […] This critical transition indicates a fundamental difference in the chemical structure of the resulting plant enhancement substance by molecular cloistering. The criticality and creation of a chemically different substance brought about by dilution is indicated by the synergy of combining the resulting dilution medium and dissolved homeopathic growth stimulant with a nutrient source such as a fertilizer. This synergy is evidenced by the multiplication of growth increase in target plants resulting from the combination. […] However, treatment of a target plant using a combination of dilution medium and dissolved homeopathic growth stimulant along with a nutrient source increases plant growth tenfold.

For `O.O.O.O.O.O=S(=O)([O-])[O-].[Cu+2]` [CuSO4, copper sulfate pentahydrate (CuSO4.5H2O)], the root development (high concentration) was “arrests root development”, the “root growth (length of roots)” value (higher concentrations of CuSO4 in the homeopathic growth stimulant) was “arrest root growth” and the root growth (homeopathic concentration (3-12X potency)) was “acts as a root growth enhancer”. The “root growth (length of roots)” value (lower concentrations of CuSO4, below the homeopathic barrier or threshold concentration) was “enhance root growth”.
